Literature values as cited in publication PMC7993274 (Clinical and Translational Science, 2020).

Columns and labels:
[1] = levels peaking 2 weeks post‐treatment; cited from earlier work
[2] = patients with rheumatoid arthritis (N = 3,492); cited from earlier work

**Q.** For `CCS(=O)(=O)N1CC(CC#N)(n2cc(-c3ncnc4[nH]ccc34)cn2)C1` [baricitinib], which “effect on platelet counts” value [1] is on record?
**A.** The value was “transiently increase platelet counts”.

**Q.** And the “venous thromboembolism incidence rate” value [2]?
**A.** The value was 0.5 per 100 patient‐years.
